{
  "source": "patent US9107909B2",
  "about": "“Materials and methods to enhance hematopoietic stem cells engraftment procedures” (priority 2008, dated 2015)",
  "key": {"[1]": {"test_system": "active caspase-3 in SKL cells", "assay": "Active caspase-3 by FACS in SKL cells", "format": "cell-based, mouse", "source_text": "All antibodies were purchased from BD Biosciences unless otherwise noted. For detection and sorting of murine KL and SKL cells, streptavidin conjugated with PE-Cy7 (to stain for biotinylated MACS lineage antibodies (Miltenyi Biotech, Auburn, Calif.)), c-kit-APC, Sca-1-PE or APC-Cy7, CD45. 1-PE and CD45.2-FITC were used. UCB CD34^+ cells were detected using anti-human-CD34-APC. For multilineage analysis, APC-Cy7-Mac-1, PE-Cy7-B-220 and APC-CD3 were used. EP receptors were detected with anti EP1, EP2, EP3 and EP4 rabbit IgG (Cayman Chemicals) and secondary staining with FITC-goat-anti-rabbit IgG (Southern Biotech, Birmingham, Ala.). CXCR4 expression was analyzed using streptavidin-PECy7, c-kit-APC, Sca-1-APC-Cy7, and CXCR4-PE. Apoptosis was measured with FITC-Annexin-V. For Survivin and active caspase-3 detection, cells were permeabilized and fixed using the CytoFix/CytoPerm kit (BD) and stained with anti-active-caspase-3-FITC Flow Kit (BD) or Survivin-PE (R&D Systems).\nExpression of EP receptors, CXCR4 and Survivin Replicate Lin^neg cell samples from CD45.2 mice were stained for SKL and each of the EP receptors and surface receptor expression on KL and SKL cells determined by FACS. […] Replicate cells were stained for CD34 and each of the EP receptors and surface expression determined by FACS. […]"}, "[2]": {"test_system": "long-term repopulating HSPC", "assay": "Limiting dilution competitive transplantation of ex vivo pulsed bone marrow", "format": "in vivo, mouse", "procedure": "WBM cells (CD45.2) were treated on ice for 2 hours with either 1 microMolar dmPGE2 (Cayman Chemical, Ann Arbor, Mich.) per 1×10^6 cells or 0.01% ETOH in sterile, non-pyrogenic PBS. After incubation, cells were washed twice and mixed with 2×10^5 congenic CD45.1 competitor marrow cells at ratios of 0.075:1, 0.25:1, 1:1, and 2.5:1 and transplanted into lethally irradiated CD45.1 mice (1100-cGy split dose) by tail-vein injection (5 mice per dilution). CD45.1 and CD45.2 cells in PB were determined monthly by flow cytometry. For head-to-head competitive transplants, WBM from CD45.1 mice and CD45.2 mice were treated with vehicle or dmPGE2 and mixed with 2×10^5 competitor marrow cells from CD45.1/CD45.2 mice at ratios of 0.075:1, 0.25:1, 1:1, and 2.5:1 and transplanted into lethally irradiated CD45.1/CD45.2 mice. The proportion of CD45.1, CD45.2, and CD45.1/CD45.2 cells in PB was determined monthly. HSPC frequency was quantitated by Poisson statistics using L-CALC software (Stem Cell Technologies, Vancouver BC, Canada) with <5% contribution to chimerism considered a negative recipient. Competitive repopulating units (CRU) were calculated as described (Harrison, 1980). For secondary transplants, 2×10^6 WBM from previously transplanted F1 Hybrid mice at the 1:1 ratio at 20 weeks post-transplant were injected into lethally irradiated F1 Hybrid mice in non-competitive fashion and PB chimerism and tri-lineage reconstitution evaluated monthly.\nReferring now to FIG. 1A, bone marrow from CD45.1 or CD45.2 mice were treated with vehicle or dmPGE2 respectively. CD45.1/CD45.2 hybrid marrow cells were used as competitors. Limiting dilutions were transplanted into lethally irradiated (1100 cGys, split dose) CD45.1/CD45.2 hybrid mice and chimerism in PB analyzed for 20 weeks. A representative flow plot detecting each cell population is shown (bottom panel).\nReferring now to FIG. 1B, frequency analysis (top) for vehicle (red) or dmPGE2 (blue) pulsed cells, determined by Poisson statistics, at 12 weeks; P0=85,560 (vehicle) and P0=23,911 (dmPGE2 treated). Chimerism in PB and CRU analysis is shown at 12 weeks (Mean±SEM). Data represent 2 pooled experiments, n=5 mice/group/expt., each assayed individually.\nThis model permits quantitative comparison of engraftment and competitiveness of HSPC from control and dmPGE2 treatment groups within the same animal (FIG. 1A), as well as endogenous repopulation of host cells.\nFor head-to-head competitive analysis, WBM from CD45.1 and CD45.2 mice were treated with vehicle or dmPGE2 and mixed with 2×10^5 competitor marrow cells from CD45.1/CD45.2 mice at various ratios and transplanted into lethally-irradiated CD45.1/CD45.2 mice. The proportion of CD45.1, CD45.2, and CD45.1/CD45.2 cells in PB was determined monthly. For secondary, tertiary and quaternary transplants, 2×10^6 WBM from previously transplanted CD45.1/CD45.2 mice at a 1:1 ratio were injected into lethally-irradiated CD45.1/CD45.2 mice in non-competitive fashion. The proportion of CD45.1, CD45.2, and CD45.1/CD45.2 cells in PB was determined monthly. […] Data for 20 week primary transplant were from 2 pooled experiments, n=5 mice/group/experiment, each assayed individually. Data for secondary, tertiary, and quaternary transplants were from n=5 mice/group, each assayed individually"}, "[3]": {"conditions": "12 weeks post-transplant, vs vehicle treated cells"}},
  "note": "Values joined by “and” are separate entries in the source; they are usually repeats but may differ in a detail not shown here. Identical values can stand only once. “Also recorded” adds a separate entry of the source.",
  "data": [
    {"smiles": "CCCCC[C@H](O)/C=C/[C@H]1[C@H](O)CC(=O)[C@@H]1C/C=C\\CCCC(=O)O", "note": "[PGE2, Prostaglandin E2]", "values": [
      {"measurement": "decrease in active caspase-3", "setting": "[1]; 24-72 hours post exposure", "value": "23-59%"},
      {"measurement": "number of treated cells giving equivalent reconstitution vs control cells", "setting": "[2]; frequency analysis, limiting dilution", "value": "one-fourth"},
      {"measurement": "period over which enhanced engraftment / HSPC frequency was stable", "setting": "[2]; primary transplant", "value": "28 weeks and > 20 weeks"},
      {"measurement": "competitive advantage / increase in HSPC frequency of PGE2-pulsed HSPC", "setting": "[2]; short-term ex vivo exposure, vs control cells, Poisson statistics and CRU", "value": 4, "unit": "fold"}
    ]},
    {"smiles": "CCCCC(C)(C)[C@H](O)/C=C/[C@H]1[C@H](O)CC(=O)[C@@H]1C/C=C\\CCCC(=O)O", "note": "[dmPGE2, 16,16-dimethyl prostaglandin E2]", "values": [
      {"measurement": "active caspase-3 in SKL cells", "setting": "[1]; 24, 48 and 72 hours post-exposure, vs control", "value": "decreased active caspase-3"},
      {"measurement": "chimerism in peripheral blood", "setting": "[2]; [3]", "value": "increased chimerism"},
      {"measurement": "increase in HSPC frequency and competitive repopulating units (CRU)", "setting": "[2]; [3]", "value": "~4", "unit": "fold"},
      {"measurement": "reconstitution of B- and T-lymphoid and myeloid lineages in PB", "setting": "[2]; 32 weeks post-transplant, vs untreated competitor or vehicle treated cells", "value": "no discernible differences"},
      {"measurement": "HSPC frequency analysis P0 (Poisson statistics)", "setting": "[2]; at 12 weeks, pulsed cells", "value": "23,911"},
      {"measurement": "chimerism in serial (secondary, tertiary, quaternary) transplants", "setting": "[2]; no additional treatment before serial transplant", "value": "also seen in secondary transplants; also recorded: Increased chimerism"},
      {"measurement": "increase in HSPC frequency", "setting": "[2]; throughout 20 weeks of follow up post-transplant", "value": "~4", "unit": "fold"}
    ]}
  ]
}
